In US9012493B2, “1-heterodiene derivative and pest control agent” (Nippon Soda Co., Ltd., priority 2009, dated 2015):

Experiments:
Format in all cases: in vivo
[1] = system: Rice Armyworm (Mythimna Separata); test: Efficacy test against rice armyworm, corn leaf dip; settings: 125 ppm, emulsifiable concentrate diluted with water, corn leaves immersed, second instar larvae, after 5 days, 25° C.
How it was run: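 Corn leaves dipped 30 s in compound diluted to 125 ppm from an emulsifiable concentrate, air-dried, then offered to five second-instar larvae. Held at 25° C and 65% humidity; mortality scored after 5 days as dead/released ×100. Run in duplicate.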

[2] = system: Cotton Aphid (Aphis Gossypii); test: Efficacy test against cotton aphid, spray on cucumber plant; settings: 125 ppm, emulsifiable concentrate diluted with water, sprayed over cucumber plant with nymphs, after 5 days, 25° C.
How it was run: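 Cucumber plants (~10 days after sprouting) carrying nymphs deposited by cotton aphid adults over 1 day were sprayed with emulsifiable concentrate diluted to 125 ppm compound. Plants were kept at 25 °C and 65% humidity. Mortality after 5 days gave the insecticidal rate (dead/released ×100), from two replicates.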

[3] = system: Sweetpotato Whitefly (Bemisia Tabaci); test: Efficacy test against sweetpotato whitefly, sprayed tomato leaf; settings: 125 ppm, emulsifiable concentrate diluted with water, adults (type B), after 2 days, 25° C.
How it was run: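 Cut tomato leaves were sprayed with an emulsifiable concentrate diluted to 125 ppm compound, air-dried, then infested with seven pairs of type B adults. Leaves were held at 25 °C and 65% humidity, and mortality was counted after 2 days as dead/released × 100. The test was run twice.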

[4] = system: Twospotted Spider Mite (Tetranychus Urticae Koch); test: Efficacy test against twospotted spider mite, spray on kidney bean plant; settings: 125 ppm, wettable powder diluted with water, sprayed, female adults with resistance to an organophosphorus agent on kidney bean, after 3 days
Description: The wettable powder obtained according to Formulation of Formulation Example 1 was diluted with water so as to control the concentration of the compound to 125 ppm. Seventeen female adults of twospotted spider mite with resistance to an organophosphorus agent were inoculated on a first true leaf of a kidney bean plant (approximately 7 to 10 days after sprouting) sown in a 3 sun/size pot (9 cm). The diluted solution was sprayed. The pot was placed in a temperature-controlled room at a temperature of 25° C. and a humidity of 65%. After 3 days, the adulticidal rate was examined. The test was repeated twice.

C=C1SC(=Nc2ccc(C)cc2)C(=CSc2ccc(C(F)(F)F)cc2)CC1(C)C [Compound 2-90]
100%: insecticidal rate [1] | insecticidal rate [2] | insecticidal rate [3] | adulticidal rate [4]

C=C1SC(=Nc2ccc(C)cc2)C(=CSc2nc3ccccc3s2)CC1(C)C [Compound 2-94]
100%: insecticidal rate [1] | insecticidal rate [2] | insecticidal rate [3] | adulticidal rate [4]

C=C1SC(=Nc2ccc(C)cc2)C(=CSc2cccc(C(F)(F)F)c2)CC1(C)C [Compound 2-99]
100%: insecticidal rate [1] | insecticidal rate [2] | insecticidal rate [3] | adulticidal rate [4]

C=C1SC(=Nc2ccc(C)cc2)C(=CSc2ccccc2C(F)(F)F)CC1(C)C [Compound 2-100]
100%: insecticidal rate [1] | insecticidal rate [2] | insecticidal rate [3] | adulticidal rate [4]

C=C1SC(=Nc2ccc(OC)cc2)C(=CSc2ccc([Si](C)(C)C)s2)CC1(C)C [Compound 2-103]
100%: insecticidal rate [1] | insecticidal rate [2] | insecticidal rate [3] | adulticidal rate [4]

C=C1SC(=Nc2ccc(C)cc2)C(=CSc2cccc(C)c2)CC1(C)C [Compound 2-110]
100%: insecticidal rate [1] | insecticidal rate [2] | insecticidal rate [3] | adulticidal rate [4]

C=C1SC(=Nc2ccc(OC)cc2)C(=CSc2ccc(Br)s2)CC1(C)C [Compound 2-117]
100%: insecticidal rate [1] | insecticidal rate [2] | insecticidal rate [3] | adulticidal rate [4]

C=C1SC(=Nc2ccc(C)cc2)C(=CSc2ccc(F)cc2F)CC1(C)C [Compound 2-124]
100%: insecticidal rate [1] | insecticidal rate [2] | insecticidal rate [3] | adulticidal rate [4]

C=C1SC(=Nc2ccc(C)c(C)c2)C(=CSc2ccccc2)CC1(C)C [Compound 2-148]
100%: insecticidal rate [1] | insecticidal rate [2] | insecticidal rate [3] | adulticidal rate [4]

C=C1SC(=Nc2ccc(C)c(C)c2)C(=CSc2cccs2)CC1(C)C [Compound 2-149]
100%: insecticidal rate [1] | insecticidal rate [2] | insecticidal rate [3] | adulticidal rate [4]

C=C1SC(=Nc2ccc(C)c(C)c2)C(=CSc2ccc(F)cc2)CC1(C)C [Compound 2-150]
100%: insecticidal rate [1] | insecticidal rate [2] | insecticidal rate [3] | adulticidal rate [4]
